Reference: the supplement of paper PMC10627819

How the values were obtained:
S. pneumoniae D39V [1] = assay: fitness (endpoint OD595 vs no drug) (fraction); higher = more growth
Method in brief: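 Fitness expresses the optical density reached at the stationary-phase transition as a fraction of the robust mean of no-drug control wells. It is capped at 1. Measurements were OD595 every 30 min for 14 h at 37 °C after inoculation of 384-well plates at OD595 0.01 (30 µl, or 55 µl for S. pneumoniae), minus the first reading.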

B. subtilis 168 = assay: Bliss interaction score (quartile over a dose matrix) (fitness difference); higher = more antagonism (negative = synergy)
Method in brief: (§1)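 Fitness was defined as normalised growth: OD595 at the start of stationary phase divided by the plate's robust no-drug mean and capped at 1. Single-drug fitness was inferred from combination measurements. The Bliss score is observed fitness minus the product of the single-drug values, summarised by quartiles across technical, biological and donor/recipient replicates.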

S. aureus DSM 20231 = assay: as above
Method in brief: as §1

S. aureus Newman = assay: as above
Method in brief: as §1

S. pneumoniae D39V [2] = assay: as above
Method in brief: as §1
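Throughout, for Bliss interaction score (quartile over a dose matrix): first quartile when negative (synergy) and third quartile when positive (antagonism).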
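Throughout, for fitness (endpoint OD595 vs no drug): OD595 on entry to stationary phase over no-drug wells; at most 1.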

CC1(C)S[C@@H]2[C@H](NC(=O)[C@H](N)c3ccc(O)cc3)C(=O)N2[C@H]1C(=O)O [Amoxicillin] + O=C1CN(/N=C/c2ccc([N+](=O)[O-])o2)C(=O)N1 [Nitrofurantoin]
fitness, S. pneumoniae D39V [1]
Conditions | partner 1.285 µg/mL | partner 2 µg/mL | partner 2.57 µg/mL | partner 4 µg/mL | partner 8 µg/mL
first compound 0.0008 µg/mL | ≥ 1 | – | 0.957 | – | –
first compound 0.0015 µg/mL | 0.92 | 0.906 | 0.962 | 0.897 | 0.903
first compound 0.003 µg/mL | 0.909 | 0.859 | 0.922 | 0.868 | 0.875

fitness, S. pneumoniae D39V [1], one replicate
Conditions | first compound 0.0008 µg/mL | first compound 0.0015 µg/mL | first compound 0.003 µg/mL | first compound 0.006 µg/mL
partner 2 µg/mL | 0.93 | – | – | 0.43
partner 4 µg/mL | 0.979 | – | – | 0.433
partner 5.14 µg/mL | 0.928 | 0.921 | 0.857 | –
partner 8 µg/mL | 0.944 | – | – | 0.514

Conditions | Bliss interaction score
B. subtilis 168 | -0.206
S. aureus DSM 20231 | -0.0521
S. aureus Newman | 0.0375
S. pneumoniae D39V [2] | 0.11

C[C@H]1COc2c(N3CCN(C)CC3)c(F)cc3c(=O)c(C(=O)O)cn1c23 [Levofloxacin] + C/C(=C\C(=O)OCCCCCCCCC(=O)O)C[C@@H]1OC[C@H](C[C@@H]2O[C@H]2[C@@H](C)[C@H](C)O)[C@@H](O)[C@H]1O [Pseudomonic acid]
fitness, S. pneumoniae D39V [1]
Conditions | first compound 0.1725 µg/mL | first compound 0.2 µg/mL | first compound 0.345 µg/mL | first compound 0.4 µg/mL | first compound 0.69 µg/mL | first compound 0.8 µg/mL
partner 0.03 µg/mL | 0.875 | 0.899 | 0.856 | 0.882 | 0.598 | 0.647
partner 0.06 µg/mL | 0.822 | 0.752 | 0.781 | 0.766 | 0.541 | 0.687
partner 0.12 µg/mL | 0.57 | 0.573 | 0.524 | 0.599 | 0.376 | 0.519

Conditions | Bliss interaction score
B. subtilis 168 | 0.0468
S. aureus DSM 20231 | 0.0199
S. aureus Newman | 0.0537
S. pneumoniae D39V [2] | 0.0974

CCCCCCCCCC(=O)N[C@@H](Cc1c[nH]c2ccccc12)C(=O)N[C@H](CC(N)=O)C(=O)N[C@@H](CC(=O)O)C(=O)N[C@@H]1C(=O)NCC(=O)N[C@@H](CCCN)C(=O)N[C@@H](CC(=O)O)C(=O)N[C@H](C)C(=O)N[C@@H](CC(=O)O)C(=O)NCC(=O)N[C@H](CO)C(=O)N[C@@H]([C@H](C)CC(=O)O)C(=O)N[C@@H](CC(=O)c2ccccc2N)C(=O)O[C@@H]1C [Daptomycin] + CO[C@H]1/C=C/O[C@@]2(C)Oc3c(C)c(O)c4c(O)c(c(/C=N/N5CCN(C)CC5)c(O)c4c3C2=O)NC(=O)/C(C)=C\C=C\[C@H](C)[C@H](O)[C@@H](C)[C@@H](O)[C@@H](C)[C@H](OC(C)=O)[C@@H]1C [Rifampicin]
fitness, S. pneumoniae D39V [1]
Conditions | first compound 1 µg/mL | first compound 2 µg/mL | first compound 4 µg/mL
partner 0.025 µg/mL | 0.978 | ≥ 1 | ≥ 1
partner 0.05 µg/mL | 0.823 | 0.864 | 0.926
partner 0.1 µg/mL | 0.262 | 0.271 | –

S. pneumoniae D39V [1], partner 0.2 µg/mL, one replicate
Conditions | fitness
first compound 1 µg/mL | 0
first compound 2 µg/mL | 0
first compound 4 µg/mL | 0

Conditions | Bliss interaction score
B. subtilis 168 | -0.0667
S. aureus DSM 20231 | -0.0427
S. aureus Newman | 0.0195
S. pneumoniae D39V [2] | 0.104

CO/N=C(\C(=O)N[C@@H]1C(=O)N2C(C(=O)[O-])=C(C[N+]3(C)CCCC3)CS[C@H]12)c1csc(N)n1 [Cefepime] + C[C@H]1COc2c(N3CCN(C)CC3)c(F)cc3c(=O)c(C(=O)O)cn1c23 [Levofloxacin]
fitness, S. pneumoniae D39V [1]
Conditions | partner 0.1725 µg/mL | partner 0.2 µg/mL | partner 0.345 µg/mL | partner 0.4 µg/mL | partner 0.69 µg/mL | partner 0.8 µg/mL
first compound 0.007 µg/mL | – | 0.996 | – | 0.951 | – | 0.779
first compound 0.0078 µg/mL | 0.991 | – | 0.937 | – | 0.727 | –
first compound 0.014 µg/mL | – | 0.993 | – | 0.963 | – | 0.768
first compound 0.0155 µg/mL | 0.928 | – | 0.924 | – | 0.62 | –
first compound 0.028 µg/mL | – | 0.935 | – | 0.861 | – | 0.516

Conditions | Bliss interaction score
B. subtilis 168 | 0.0275
S. aureus DSM 20231 | 0.0646
S. aureus Newman | 0.0639
S. pneumoniae D39V [2] | 0.157

CCCCCCCCCC(=O)N[C@@H](Cc1c[nH]c2ccccc12)C(=O)N[C@H](CC(N)=O)C(=O)N[C@@H](CC(=O)O)C(=O)N[C@@H]1C(=O)NCC(=O)N[C@@H](CCCN)C(=O)N[C@@H](CC(=O)O)C(=O)N[C@H](C)C(=O)N[C@@H](CC(=O)O)C(=O)NCC(=O)N[C@H](CO)C(=O)N[C@@H]([C@H](C)CC(=O)O)C(=O)N[C@@H](CC(=O)c2ccccc2N)C(=O)O[C@@H]1C [Daptomycin] + C[C@@H](O)[C@H]1C(=O)N2C(C(=O)O)=C(SCCNC=N)C[C@H]12 [Imipenem]
fitness, S. pneumoniae D39V [1]
Conditions | partner 0.005 µg/mL | partner 0.0065 µg/mL | partner 0.01 µg/mL | partner 0.013 µg/mL | partner 0.02 µg/mL | partner 0.026 µg/mL
first compound 1 µg/mL | 0.962 | 0.886 | 0.986 | 0.808 | 0.935 | 0.716
first compound 2 µg/mL | 0.979 | 0.895 | 0.931 | 0.837 | 0.989 | 0.843
first compound 4 µg/mL | 0.902 | 0.93 | 0.884 | 0.947 | 0.897 | 0.887

Conditions | Bliss interaction score
B. subtilis 168 | -0.0985
S. aureus DSM 20231 | 0.0417
S. aureus Newman | 0.0265
S. pneumoniae D39V [2] | 0.0763
